Test results taken from ChEMBL document CHEMBL1201862, “PubChem BioAssay data set” (2004).
Values joined by “and” are separate entries in the source; they are usually repeats but may differ in a detail not shown here. Equal entries are not always repeated.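 Following 48 hours of exposure in 96-well plates, responses at five concentrations were used to interpolate endpoints linearly. The concentration for 50% growth inhibition is given as GI50.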 Active and inactive are the calls of the source. Cut-off read from the data, not from the text of the source: active = GI50 up to about 1.1 µM and inactive = higher.

Columns and labels:
Assay in all cases: growth of human tumour cells (NCI), 48 h
ACHN = system: ACHN
TK-10 = system: TK-10
EKVX = system: EKVX
HOP-92 = system: HOP-92
OVCAR-3 = system: OVCAR-3
HCT-15 = system: HCT-15
786-0 = system: 786-0
UACC-257 = system: UACC-257
SK-MEL-5 = system: SK-MEL-5
MDA-MB-231 = system: MDA-MB-231
SNB-75 = system: SNB-75
SF-268 = system: SF-268
RXF 393 = system: RXF 393
K562 = system: K562
HL-60 = system: HL-60
COLO 205 = system: COLO 205
SR = system: SR
OVCAR-4 = system: OVCAR-4
NCI/ADR-RES = system: NCI/ADR-RES
NCI-H522 = system: NCI-H522
Hs-578T = system: Hs-578T
NCI-H226 = system: NCI-H226
SN12C = system: SN12C
HOP-62 = system: HOP-62
OVCAR-5 = system: OVCAR-5
OVCAR-8 = system: OVCAR-8
UACC-62 = system: UACC-62
IGROV-1 = system: IGROV-1
CCRF-CEM = system: CCRF-CEM
T47D = system: T47D
HCT-116 = system: HCT-116
LOX IMVI = system: LOX IMVI
SNB-19 = system: SNB-19
BT-549 = system: BT-549
M14 = system: M14
MCF7 = system: MCF7
NCI-H460 = system: NCI-H460
PC-3 = system: PC-3
SF-295 = system: SF-295
NCI-H23 = system: NCI-H23
SF-539 = system: SF-539
HT-29 = system: HT-29
MDA-MB-435 = system: MDA-MB-435
MOLT-4 = system: MOLT-4
KM12 = system: KM12
SW-620 = system: SW-620
SK-MEL-28 = system: SK-MEL-28
HCC 2998 = system: HCC 2998
SK-OV-3 = system: SK-OV-3
A498 = system: A498
A549 = system: A549
CAKI-1 = system: CAKI-1
U-251 = system: U-251
SK-MEL-2 = system: SK-MEL-2
DU-145 = system: DU-145
Malme-3M = system: Malme-3M
RPMI-8226 = system: RPMI-8226
UO-31 = system: UO-31
MDA-N = system: MDA-N

Question: How did the GI50 (ACHN) turn out when `CCOC(=O)/C=C\[C@H]1OC(C)(C)O[C@H]1[C@H](O)[C@H]1COC(C)(C)O1` was run?
Answer: 16.3 µM (inactive)

Question: What about the GI50 (TK-10) of the same compound?
Answer: 16.1 µM (inactive)

Question: And the GI50 (EKVX)?
Answer: 21.1 µM (inactive)

Question: What about the GI50 (HOP-92) of the same compound?
Answer: 13.2 µM (inactive)

Question: What about the GI50 (OVCAR-3) of the same compound?
Answer: 17.4 µM (inactive)

Question: And the GI50 (HCT-15)?
Answer: 17000 nM

Question: What about the GI50 (786-0) of the same compound?
Answer: 19.4 µM (inactive)

Question: What about the GI50 (UACC-257) of the same compound?
Answer: 22.6 µM (inactive)

Question: And the GI50 (SK-MEL-5)?
Answer: 18.2 µM (inactive)

Question: And the GI50 (MDA-MB-231)?
Answer: 17.6 µM (inactive)

Question: And the GI50 (SNB-75)?
Answer: 2.57 µM (inactive)

Question: What about the GI50 (SF-268) of the same compound?
Answer: 25.4 µM (inactive)

Question: What about the GI50 (RXF 393) of the same compound?
Answer: 20 µM (inactive)

Question: And the GI50 (K562)?
Answer: 10.4 µM (inactive)

Question: What about the GI50 (HL-60) of the same compound?
Answer: 22.8 µM (inactive)

Question: And the GI50 (COLO 205)?
Answer: 15.8 µM (inactive)

Question: What about the GI50 (SR) of the same compound?
Answer: 17.1 µM (inactive)

Question: What about the GI50 (OVCAR-4) of the same compound?
Answer: 19.3 µM (inactive)

Question: And the GI50 (NCI/ADR-RES)?
Answer: 32.5 µM (inactive)

Question: What about the GI50 (NCI-H522) of the same compound?
Answer: 13.8 µM (inactive)

Question: What about the GI50 (Hs-578T) of the same compound?
Answer: 26.8 µM (inactive)

Question: What about the GI50 (NCI-H226) of the same compound?
Answer: > 100 µM (inactive)

Question: What about the GI50 (SN12C) of the same compound?
Answer: 17.4 µM (inactive)

Question: What about the GI50 (HOP-62) of the same compound?
Answer: 66.4 µM (inactive)

Question: What about the GI50 (OVCAR-5) of the same compound?
Answer: 17.1 µM (inactive)

Question: And the GI50 (OVCAR-8)?
Answer: 29.8 µM (inactive)

Question: And the GI50 (UACC-62)?
Answer: 23.7 µM (inactive)

Question: What about the GI50 (IGROV-1) of the same compound?
Answer: 19.5 µM (inactive)

Question: And the GI50 (CCRF-CEM)?
Answer: 10.5 µM (inactive)

Question: What about the GI50 (T47D) of the same compound?
Answer: 20.5 µM (inactive)

Question: What about the GI50 (HCT-116) of the same compound?
Answer: 19.7 µM (inactive)

Question: What about the GI50 (LOX IMVI) of the same compound?
Answer: 20 µM (inactive)

Question: What about the GI50 (SNB-19) of the same compound?
Answer: > 100 µM (inactive)

Question: And the GI50 (BT-549)?
Answer: 22 µM (inactive)

Question: And the GI50 (M14)?
Answer: 17.8 µM (inactive)

Question: What about the GI50 (MCF7) of the same compound?
Answer: 20.8 µM (inactive)

Question: And the GI50 (NCI-H460)?
Answer: 27 µM (inactive)

Question: And the GI50 (PC-3)?
Answer: 20.7 µM (inactive)

Question: What about the GI50 (SF-295) of the same compound?
Answer: > 100 µM (inactive)

Question: And the GI50 (NCI-H23)?
Answer: 21.7 µM (inactive)

Question: And the GI50 (SF-539)?
Answer: 17.7 µM (inactive)

Question: What about the GI50 (HT-29) of the same compound?
Answer: 20.7 µM (inactive)

Question: And the GI50 (MDA-MB-435)?
Answer: 17.3 µM (inactive)

Question: And the GI50 (MOLT-4)?
Answer: 19.2 µM (inactive)

Question: And the GI50 (KM12)?
Answer: 77.3 µM (inactive)

Question: What about the GI50 (SW-620) of the same compound?
Answer: 19.6 µM (inactive)

Question: And the GI50 (SK-MEL-28)?
Answer: 17.7 µM (inactive)

Question: What about the GI50 (HCC 2998) of the same compound?
Answer: 11.3 µM (inactive)

Question: And the GI50 (SK-OV-3)?
Answer: > 100 µM (inactive)

Question: What about the GI50 (A498) of the same compound?
Answer: 16.6 µM (inactive)

Question: And the GI50 (A549)?
Answer: > 100 µM (inactive)

Question: What about the GI50 (CAKI-1) of the same compound?
Answer: 2.57 µM (inactive)

Question: And the GI50 (U-251)?
Answer: 17.7 µM (inactive)

Question: What about the GI50 (SK-MEL-2) of the same compound?
Answer: 22.3 µM (inactive)

Question: What about the GI50 (DU-145) of the same compound?
Answer: > 100 µM (inactive)

Question: And the GI50 (Malme-3M)?
Answer: 18.9 µM (inactive)

Question: What about the GI50 (RPMI-8226) of the same compound?
Answer: 19.8 µM (inactive)

Question: What about the GI50 (UO-31) of the same compound?
Answer: 18.4 µM (inactive)

Question: `COc1cccc(-c2cc(O)c3cc(N(C)C)ccc3n2)c1` was tested. Which GI50 (HCT-15) did it give?
Answer: 9.25 nM and 11.6 nM

Question: And the GI50 (UACC-257)?
Answer: 10.2 nM (active) and 5.13 nM (active)

Question: What about the GI50 (MDA-MB-231) of the same compound?
Answer: 42.7 nM (active) and 25.8 nM (active)

Question: What about the GI50 (RXF 393) of the same compound?
Answer: 1.76 nM (active) and 18.8 nM (active)

Question: What about the GI50 (OVCAR-4) of the same compound?
Answer: 4.95 µM (inactive) and 7.4 µM (inactive)

Question: What about the GI50 (NCI-H226) of the same compound?
Answer: 37.6 nM (active) and 23.7 nM (active)

Question: And the GI50 (SN12C)?
Answer: 44.9 nM (active) and 24.3 nM (active)

Question: What about the GI50 (HOP-62) of the same compound?
Answer: 25.6 nM (active) and 16.7 nM (active)

Question: And the GI50 (OVCAR-5)?
Answer: 48.1 nM (active) and 41.5 nM (active)

Question: And the GI50 (OVCAR-8)?
Answer: 32.2 nM (active) and 18.2 nM (active)

Question: What about the GI50 (T47D) of the same compound?
Answer: > 10 µM (inactive)

Question: What about the GI50 (SNB-19) of the same compound?
Answer: 30.4 nM (active) and 28.2 nM (active)

Question: And the GI50 (BT-549)?
Answer: 0.681 µM (active)

Question: And the GI50 (NCI-H23)?
Answer: 31.4 nM (active) and 37.4 nM (active)

Question: What about the GI50 (HT-29) of the same compound?
Answer: 22.9 nM (active) and 14 nM (active)

Question: And the GI50 (MDA-MB-435)?
Answer: 2.68 nM (active) and 1.39 nM (active)

Question: And the GI50 (A498)?
Answer: < 0.01 µM (active)

Question: What about the GI50 (MDA-N) of the same compound?
Answer: 1.24 nM (active) and 2.27 nM (active)

Question: What about the GI50 (RPMI-8226) of the same compound?
Answer: 30.2 nM (active) and 37.2 nM (active)
